Assay results from ChEMBL document CHEMBL1201862, “PubChem BioAssay data set” (2004).
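Briefly, cells in 96-well plates were exposed to five compound concentrations for 48 h, and endpoints were estimated by linear interpolation. Here, GI50 denotes the concentration required for 50% inhibition of growth.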 Activity calls are given as the source filed them. Rule as the data show it: active = GI50 up to about 1.1 µM and inactive = higher.

How the values were obtained:
Test in all cases: growth of human tumour cells (NCI), 48 h
MOLT-4 = test system: MOLT-4
HT-29 = test system: HT-29
A498 = test system: A498
EKVX = test system: EKVX
SK-OV-3 = test system: SK-OV-3
OVCAR-3 = test system: OVCAR-3
UO-31 = test system: UO-31
U-251 = test system: U-251
A549 = test system: A549
Malme-3M = test system: Malme-3M
UACC-257 = test system: UACC-257
HCT-15 = test system: HCT-15
786-0 = test system: 786-0
CCRF-CEM = test system: CCRF-CEM
SNB-75 = test system: SNB-75
SK-MEL-28 = test system: SK-MEL-28
KM12 = test system: KM12
RXF 393 = test system: RXF 393

Structure (SMILES)	GI50 (MOLT-4)	GI50 (HT-29)	GI50 (A498)	GI50 (EKVX)	GI50 (SK-OV-3)	GI50 (OVCAR-3)	GI50 (UO-31)	GI50 (U-251)	GI50 (A549)	GI50 (Malme-3M)	GI50 (UACC-257)	GI50 (HCT-15) [µM]	GI50 (786-0)	GI50 (CCRF-CEM)	GI50 (SNB-75)	GI50 (SK-MEL-28)	GI50 (KM12)	GI50 (RXF 393)
c1ccc2cc(-c3cc4ccccc4s3)ccc2c1	38.2 µM (inactive)	> 100 µM (inactive)	> 100 µM (inactive)	> 100 µM (inactive)	22.1 µM (inactive)	> 100 µM (inactive)	> 100 µM (inactive)	> 100 µM (inactive)	> 100 µM (inactive)	> 100 µM (inactive)	> 100 µM (inactive)	> 100	> 100 µM (inactive)	> 100 µM (inactive)	23.1 µM (inactive)	> 100 µM (inactive)	> 100 µM (inactive)	
CC(=O)CC(=O)CCCC(=O)Nc1ccc(Cl)cc1C	> 100 µM (inactive)	> 100 µM (inactive)	> 100 µM (inactive)	> 100 µM (inactive)	> 100 µM (inactive)	> 100 µM (inactive)	> 100 µM (inactive)	> 100 µM (inactive)	> 100 µM (inactive)	> 100 µM (inactive)	> 100 µM (inactive)	> 100	> 100 µM (inactive)	> 100 µM (inactive)			> 100 µM (inactive)	
O=[N+]([O-])c1cc2c(cc1O)[nH]c1cccc([N+](=O)[O-])c12	> 100 µM (inactive)	> 100 µM (inactive)				> 100 µM (inactive)	> 100 µM (inactive)		> 100 µM (inactive)	> 100 µM (inactive)	> 100 µM (inactive)	> 100	> 100 µM (inactive)	> 100 µM (inactive)	> 100 µM (inactive)	> 100 µM (inactive)	> 100 µM (inactive)	
COc1ccc(NC(=O)CC(=O)n2nc(-c3ccccc3)c(/N=N/c3ccccc3C(=O)O)c2-c2ccccc2)cc1	40.6 µM (inactive)			34.6 µM (inactive)	15.9 µM (inactive)	> 100 µM (inactive)	> 100 µM (inactive)	42.6 µM (inactive)	> 100 µM (inactive)			> 100	21.9 µM (inactive)	> 100 µM (inactive)		74.5 µM (inactive)	> 100 µM (inactive)	28.8 µM (inactive)
O=C(CC1(O)C(=O)Nc2ccccc21)c1ccco1 (stereo not given)	> 100 µM (inactive)	> 100 µM (inactive)	> 100 µM (inactive)	> 100 µM (inactive)	> 100 µM (inactive)	> 100 µM (inactive)	> 100 µM (inactive)		> 100 µM (inactive)	> 100 µM (inactive)	> 100 µM (inactive)	> 100	> 100 µM (inactive)		94.8 µM (inactive)	> 100 µM (inactive)		> 100 µM (inactive)
O=S(=O)(O)CS(=O)(=O)OCCCl	> 100 µM (inactive)	> 100 µM (inactive)	> 100 µM (inactive)	> 100 µM (inactive)	> 100 µM (inactive)	> 100 µM (inactive)	> 100 µM (inactive)	> 100 µM (inactive)	> 100 µM (inactive)	> 100 µM (inactive)	> 100 µM (inactive)		> 100 µM (inactive)		> 100 µM (inactive)	> 100 µM (inactive)	> 100 µM (inactive)	> 100 µM (inactive)
S=c1sc2c(n1-c1ccccc1)N=CNC2S (stereo not given)	92.5 µM (inactive)	> 100 µM (inactive)		64.1 µM (inactive)	> 100 µM (inactive)	77.1 µM (inactive)	37.3 µM (inactive)	36.1 µM (inactive)	65.9 µM (inactive)	44.8 µM (inactive)	48.8 µM (inactive)	97.3	> 100 µM (inactive)	46.2 µM (inactive)	56.6 µM (inactive)	> 100 µM (inactive)	> 100 µM (inactive)	> 100 µM (inactive)
CCC(=O)c1cn(C)c(=O)c2ccccc12	> 100 µM (inactive)	> 100 µM (inactive)		> 100 µM (inactive)	> 100 µM (inactive)	> 100 µM (inactive)	> 100 µM (inactive)	> 100 µM (inactive)	> 100 µM (inactive)	> 100 µM (inactive)	> 100 µM (inactive)	> 100	> 100 µM (inactive)	> 100 µM (inactive)	36.5 µM (inactive)	> 100 µM (inactive)	> 100 µM (inactive)	> 100 µM (inactive)
CO/N=C(\C(=O)Nn1cn[n+](CC(=O)[O-])c1)c1csc(N)n1	> 10 µM (inactive)	> 10 µM (inactive)		> 10 µM (inactive)	> 10 µM (inactive)				> 10 µM (inactive)		> 10 µM (inactive)	> 10	> 10 µM (inactive)	> 10 µM (inactive)	9.25 µM (inactive)	> 10 µM (inactive)	> 10 µM (inactive)	
